Assay results published in patent US20130197032A1, “[…] COMPOUNDS FOR THE TREATMENT OF NEUROLOGICAL AND […] DISORDERS” (A. CARLSSON RESEARCH AB, priority 2010, published 2013).
Where “and” joins values, the source holds several entries; their conditions need not be identical. Equal values may be shown once. Read-outs that look alike come from different tables or passages of the source.

Tests used:
[1] = tested on: reserpine-pretreated mice; assay: Motor activity in monoamine-depleted (reserpine-pretreated) mice, video tracking; conditions: for antagonism of motor stimulation induced by (+)-OSU6162 250 μmol/kg ip / antagonism of motor stimulation induced by (−)-OSU6162 250 μmol/kg ip: haloperidol 1 mg/kg ip, raclopride 20 mg/kg sc, M100907 1 mg/kg ip, SCH23390 0.3 mg/kg sc, SCH39166 0.1-0.9 mg/kg sc
[2] = tested on: drug naive mice; assay: Head twitch induction in mice; type: in vivo; conditions: DOI 1 mg/kg ip, OSU6162 enantiomers 9.375-300 μmol/kg ip, 10 min before registration
Description: The animals used in the head twitch experiments were individually placed in Macrolon type II cages and allowed to habituate to these test cages during 30 minutes before the video registration of behavior began. […] The animals were videotaped for 10 minutes; the behavior was scored during the first 5 minutes. The number of head twitches was counted from the videotapes by a person blind to the treatment.
In FIG. 5, the number of head twitches produced during 5 minutes is shown. The mice were habituated to the test cages during 30 minutes before the video registration of behavior began. […] Shown are means and SEM, n=6-12.

[3] = biological target: T1, D2 receptors (Homo sapiens, UniProt P14416); assay: R-SAT functional assay at D2; type: cell-based; design: expressed in transfected cells; host or cells: NIH-3T3
T1 sequence (P14416 1-414 isoform P14416-2): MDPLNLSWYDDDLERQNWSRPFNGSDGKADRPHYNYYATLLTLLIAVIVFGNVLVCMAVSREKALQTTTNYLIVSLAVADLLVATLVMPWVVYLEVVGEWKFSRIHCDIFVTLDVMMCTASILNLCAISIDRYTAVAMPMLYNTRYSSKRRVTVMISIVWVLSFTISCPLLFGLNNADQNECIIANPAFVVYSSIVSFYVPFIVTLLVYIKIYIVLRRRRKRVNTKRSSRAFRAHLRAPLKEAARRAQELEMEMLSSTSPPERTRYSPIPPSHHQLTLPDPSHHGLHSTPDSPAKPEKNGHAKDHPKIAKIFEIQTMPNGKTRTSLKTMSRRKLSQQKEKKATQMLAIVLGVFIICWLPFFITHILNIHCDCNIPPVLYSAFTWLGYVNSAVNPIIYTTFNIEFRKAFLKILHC

[4] = biological target: T1, D2 receptors; assay: GTPγS binding assay at D2; type: biochemical; design: expressed in transfected cells
Description: Cells were not centrifuged following cell scraping, but were collected directly into the ice-cold nitrogen cavitation chamber.
50 μl/well Wheat-Germ Agglutinin SPA beads (Perkin Elmer, Shelton, Conn.) were added to the plates and the plates incubated for 1 hour. The plates were then centrifuged at 1,000×g for 10 minutes and read on a Top Count NXT (Perkin Elmer, Shelton, Conn.).
To relate the results observed in R-SAT™ to a more conventional assay system, these ligands were also tested for the ability to induce GTPγS binding through D2 receptors.

[5] = biological target: T2, human 5-HT2A receptors (Homo sapiens, UniProt P28223); assay: Phosphatidyl inositol (PI) hydrolysis assay at 5-HT2A; type: cell-based; design: expressed in transfected cells
T2 sequence (P28223 whole entry): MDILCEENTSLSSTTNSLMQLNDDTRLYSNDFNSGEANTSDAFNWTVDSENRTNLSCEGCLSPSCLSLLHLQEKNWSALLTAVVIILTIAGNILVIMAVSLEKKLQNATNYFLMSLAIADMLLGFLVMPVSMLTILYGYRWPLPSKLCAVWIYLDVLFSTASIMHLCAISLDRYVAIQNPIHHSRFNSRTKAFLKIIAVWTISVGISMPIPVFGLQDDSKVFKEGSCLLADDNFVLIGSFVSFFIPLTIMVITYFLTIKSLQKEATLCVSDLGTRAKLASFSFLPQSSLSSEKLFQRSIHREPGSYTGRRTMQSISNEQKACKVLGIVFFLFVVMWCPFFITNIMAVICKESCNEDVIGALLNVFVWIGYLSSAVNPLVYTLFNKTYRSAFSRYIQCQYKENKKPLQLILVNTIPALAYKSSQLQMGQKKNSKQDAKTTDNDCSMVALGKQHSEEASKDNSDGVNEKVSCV
Description: After lysing the cells with 50 μl of 0.1M formic acid, 20 μl each cell lysate was mixed with 80 μl (1 mg) RNA Binding YSi-SPA beads (GE Healthcare, Chalfont St. Giles, UK) on PICO plates (PerkinElmer) and counted on a TopCount (Packard).
Each curve is representative of at least three or more independent experiments.

[6] = biological target: T2, human 5-HT2A receptors; assay: BRET2 beta-arrestin-2 recruitment assay at 5-HT2A; type: cell-based; design: expressed in transfected cells; host or cells: HEK-293T
Description: (§1) BRET-2 signals were measured using the multiplate reader Mithras 940LB (Berthold Technologies, Bad Wildbad, Germany) and were calculated as the ratio between the Renilla luciferase emission and the GFP2 emission corrected by the background emissions of non-transfected cells.

[7] = biological target: T2, human 5-HT2A receptors; assay: R-SAT functional assay at 5-HT2A; type: cell-based; design: expressed in transfected cells; host or cells: NIH-3T3; conditions: for EC50: read-out: R-SAT pEC50 (converted)
[8] = biological target: T1, D2 receptors; assay: BRET2 beta-arrestin-2 recruitment assay at D2; type: cell-based; design: expressed in transfected cells; host or cells: HEK-293T
Description: as §1
Each curve is representative of two to three independent experiments.

[9] = biological target: T3, human 5-HT1E receptor (Homo sapiens, UniProt P28566); assay: R-SAT assay 5-HT1E; type: cell-based; conditions: Table 3, 5-HT1E
T3 construct: expressed in transfected cells; host or cells: NIH/3T3
T3 sequence (P28566 whole entry): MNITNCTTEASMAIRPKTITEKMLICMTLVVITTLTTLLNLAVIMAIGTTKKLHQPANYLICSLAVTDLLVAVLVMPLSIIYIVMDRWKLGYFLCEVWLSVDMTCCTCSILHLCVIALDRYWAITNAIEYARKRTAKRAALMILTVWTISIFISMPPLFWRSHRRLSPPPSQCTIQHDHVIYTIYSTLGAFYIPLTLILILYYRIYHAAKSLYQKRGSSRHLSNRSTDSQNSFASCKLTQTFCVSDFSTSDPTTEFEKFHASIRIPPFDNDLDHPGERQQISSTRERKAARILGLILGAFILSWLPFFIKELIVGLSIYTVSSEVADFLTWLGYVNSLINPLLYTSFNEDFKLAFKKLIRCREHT

[10] = biological target: T4, human 5-HT1F receptor (Homo sapiens, UniProt P30939); assay: R-SAT assay 5-HT1F; type: cell-based; conditions: Table 3, 5-HT1F
T4 construct: expressed in transfected cells; host or cells: NIH/3T3
T4 sequence (P30939 1-366): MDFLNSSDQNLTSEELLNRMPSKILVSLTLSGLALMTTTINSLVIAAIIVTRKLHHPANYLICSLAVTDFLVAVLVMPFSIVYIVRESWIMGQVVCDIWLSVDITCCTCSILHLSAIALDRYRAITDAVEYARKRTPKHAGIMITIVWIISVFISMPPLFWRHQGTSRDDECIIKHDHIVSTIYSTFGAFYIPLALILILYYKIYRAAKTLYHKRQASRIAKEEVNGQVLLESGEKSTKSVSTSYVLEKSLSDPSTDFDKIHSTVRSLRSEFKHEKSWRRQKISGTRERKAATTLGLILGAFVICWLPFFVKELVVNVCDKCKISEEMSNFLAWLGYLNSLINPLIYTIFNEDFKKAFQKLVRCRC

[11] = biological target: T5, human H1 receptor (Homo sapiens, UniProt P35367); assay: R-SAT assay H1; type: cell-based; conditions: Table 3, H1; percent response of reference Histamine
T5 construct: expressed in transfected cells; host or cells: NIH/3T3
T5 sequence (P35367 whole entry): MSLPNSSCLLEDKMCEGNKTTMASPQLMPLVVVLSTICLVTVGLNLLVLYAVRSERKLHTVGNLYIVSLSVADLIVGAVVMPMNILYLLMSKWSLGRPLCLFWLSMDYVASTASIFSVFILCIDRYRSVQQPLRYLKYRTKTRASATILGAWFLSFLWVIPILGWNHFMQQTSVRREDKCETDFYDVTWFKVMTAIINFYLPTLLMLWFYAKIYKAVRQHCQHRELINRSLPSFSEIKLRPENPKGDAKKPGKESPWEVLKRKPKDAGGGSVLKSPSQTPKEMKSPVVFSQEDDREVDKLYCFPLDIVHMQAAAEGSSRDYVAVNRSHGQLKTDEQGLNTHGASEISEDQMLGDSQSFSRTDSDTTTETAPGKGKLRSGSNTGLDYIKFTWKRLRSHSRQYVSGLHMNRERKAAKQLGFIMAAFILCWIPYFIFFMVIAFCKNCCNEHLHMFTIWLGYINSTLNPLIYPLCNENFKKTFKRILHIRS

[12] = tested on: habituated rats; assay: Locomotion in habituated rats, photocell activity boxes; conditions: habituated rats
Description: Motor activity experiments in both active and habituated rats were performed on male Sprague-Dawley rats (Charles River, Germany) weighing 280-320 g. Prior to testing, rats were housed in groups of four or five in ventilated Macrolon type IV cages for approximately one week.
Rats were housed in a normal daylight cycle and the experiments were carried out during daytime. […] During the following 5 minutes test drugs were injected, after which the rats were returned to the boxes for another 60 minutes. Five by five rows of photocell beams at floor level allowed a computer based-system to register horizontal activity. Motor activity is presented as accumulated number of unrepeated beam breaks, i.e. several consecutive breakings of one beam is counted as one beam break. The software was set to register behavior from the rats' first introduction into the arena until it was finally removed from the box, i.e. for 110 or 130 minutes.
Locomotion was measured as accumulated unrepeated beam breaks. […] This was followed by 60 minutes of registration. Data are calculated from a 30 minutes period, 5-35 minutes after injection, and plotted as means and SEM. […] Data were calculated from a 30 minutes period, 5-35 minutes after injection.
The effect of haloperidol on the locomotor stimulation was also studied in habituated rats (see FIG. 10). Locomotion was measured as accumulated unrepeated beam breaks. Rats were given haloperidol (0.05, 0.2, 0.5 mg/kg, sc) and were then allowed to habituate for 65 minutes. […] Data are calculated from a 30 minutes period, taken 5-35 minutes after injection, and plotted as means and SEM. N=4-5.

[13] = Table 2, percent response of reference ligand pergolide, mean ± SEM
[14] = percent response of reference ligand dopamine, mean ± SEM
[15] = percent response of reference ligand 5-HT, mean ± SEM
[16] = Table 1, negative logarithm of EC50 in molar (M), NIH3T3 cells, mean ± SEM
[17] = negative logarithm of EC50 in molar (M), HEK 293T cells, mean ± SEM
[18] = negative logarithm of EC50 in molar
[19] = percent response of reference BRL 54443
[20] = reserpine-pretreated mice, M100907 0.1 and 1 mg/kg ip 30 minutes prior
[21] = haloperidol 0.05, 0.2 and 0.5 mg/kg sc

In the case of `COc1cc(CC(C)N)c(OC)cc1I.Cl` (racemic) [DOI, (±)-1-(2,5-dimethoxy-4-iodophenyl)-2-aminopropane hydrochloride, reference compound], the “motor activity (distance moved, DM 1.5)” value ([1]; reserpine 10 mg/kg ip 20 h prior, test drug ip just prior to recording, first 30 minutes, vs reserpine only group) is reported as “able to induce locomotor stimulation in reserpine-pretreated mice” and the “head twitches produced during 5 minutes” value [2] is reported as “induces head twitches in the mouse”.
With `CCCN1CCCC(c2cccc(O)c2)C1` (single isomer, unassigned; (+)) [(+)-3-PPP, [3-(3-hydroxyphenyl)-N-n-propyl]piperidine] the “R-SAT Eff(%)” value [3, 13] was 101 ± 8%, the “agonist profile in GTPγS binding assays at D2 receptors” value [4] was “full agonist” and the “GTPγS Eff %” value [4, 14] was 102 ± 4%. The EC50 ([5]; negative logarithm of EC50 in molar (M), HEK 293T cells, mean ± SEM, read-out: PI Hydrolysis pEC50 (converted)) was greater than 1e-05 M, the “PI Hydrolysis Eff (%)” value [5, 15] was 17 — % and the EC50 ([6]; negative logarithm of EC50 in molar (M), HEK 293T cells, mean ± SEM, read-out: BRET2 pEC50 (converted)) was greater than 0.0001 M. For the same molecule, the “BRET2 Eff %” value [6, 15] was 42 ± 5%, the “R-SAT Eff(%)” value [7] was 87 ± 26% and the EC50 [7, 16] was 6.31e-06 M. For the same molecule, the “agonist profile in BRET2 assays at D2 receptors” value (shortened to “agonist profile in BRET2 assays”) [8] was “partial agonists” and the “BRET2 Eff %” value [8, 14] was 58 ± 2%.
With `CCCN1CCCC(c2cccc(O)c2)C1` (single isomer, unassigned; (-)) [(−)-3-PPP, [3-(3-hydroxyphenyl)-N-n-propyl]piperidine] the “R-SAT Eff(%)” value [3, 13] was 77% and 77 ± 4%, the “agonist profile in GTPγS binding assays at D2 receptors” value [4] was “strong partial agonists” and the “GTPγS Eff %” value [4, 14] was 77 ± 4%. The “PI Hydrolysis Eff (%)” value [5, 15] was 5 — %, the “BRET2 Eff %” value [6, 15] was 10 ± 4% and the “R-SAT Eff(%)” value [7] was 47 ± 12%. For the same molecule, the EC50 [7, 16] was 3.98e-06 M and the “BRET2 Eff %” value [8, 14] was 2% and 2 ± 0%.
In the case of `NCCc1c[nH]c2ccc(O)cc12` [5-HT, 5-hydroxytryptamine], the “PI Hydrolysis Eff (%)” value [5] is reported as 100 ± 0% and the “BRET2 Eff %” value [6] is reported as 100 ± 5%.
`CCN(CC)C(=O)N[C@H]1C[C@@H]2c3cccc4[nH]cc(c34)C[C@H]2N(C)C1` [(+)-Terguride] was tested, and the “R-SAT Eff(%)” value [3] was 92 ± 20%, the “R-SAT pEC50” value ([3]; Table 2, negative logarithm of EC50 in molar, NIH3T3 cells, mean ± SEM) was 11.1 ± 0.2 and the “GTPγS pEC50” value [4] was 9.3 ± 0.2. The “agonist profile in GTPγS binding assays at D2 receptors” value [4] was “strong partial agonists”, the “GTPγS Eff %” value [4, 14] was 88 ± 8% and the “PI Hydrolysis pEC50” value [5, 17] was 9.1 ± 0.2. The “PI Hydrolysis Eff (%)” value [5, 15] was 52 ± 8%, the “BRET2 pEC50” value [6, 17] was 7.0 ± 0.0 and the “BRET2 Eff %” value [6, 15] was 42 ± 2%. For the same molecule, the “R-SAT pEC50” value [7, 16] was 9.8 ± 0.9, the “R-SAT Eff(%)” value ([7]; Table 1, percent response of reference ligand 5-CT, mean ± SEM) was 89 ± 13% and the “BRET2 pEC50” value ([8]; negative logarithm of EC50 in molar, HEK293T cells, mean ± SEM) was 7.2 ± 0.1. For the same molecule, the “BRET2 Eff %” value [8, 14] was 8 ± 1% and the “BRET2 Eff %” value ([8]; percent response of reference ligand dopamine, mean ± SEM, listed as (+)-terguride) was 8%.
With `CN1CCC(c2c[nH]c3ccc(O)cc23)CC1` [BRL 54443, reference compound] the pEC50 [9, 18] was 6.7, the “Eff (%)” value [9, 19] was 100% and the pEC50 [10, 18] was 6.8. The “Eff (%)” value [10, 19] was 100%.
In the case of `NCCc1c[nH]cn1` [Histamine, reference compound], the “Eff (%)” value [11] is reported as 100%.
For `COc1cccc([C@H](O)C2CCN(CCc3ccc(F)cc3)CC2)c1OC` [M100907, (+)-(R)-1-[1-[2-(4-fluorophenyl)ethyl]piperidin-4-yl]-1-(2,3-dimethoxyphenyl)methanol], the “effect of three doses on motor activity increase caused by 250 μmol/kg of (−)-OSU6162” value ([1]; reserpine-pretreated mice, M100907 0.01, 0.1, 1 mg/kg ip 30 minutes prior) was “Only the 1 mg/kg dose significantly decreased motor activity”, the “antagonism of locomotor stimulation induced by DOI 2.5 mg/kg” value ([1]; reserpine-pretreated mice, M100907 0.01, 0.1, 1 mg/kg ip 30 minutes prior, all doses significant) was “highly effective in antagonizing the locomotor stimulant effects of 2.5 mg/kg of DOI” and the “reversal of locomotor stimulation induced by 125 μmol/kg of (+)-OSU6162” value [1, 20] was “effectively reversed”. For the same molecule, the “reversal of locomotor stimulation induced by 125 μmol/kg of (−)-OSU6162” value [1, 20] was “effectively reversed”, the “antagonism of motor stimulation induced by (+)-OSU6162 250 μmol/kg ip” value (“antagonism … (+)-OSU6162 250 μmol/kg ip” for short) ([1]; reserpine-pretreated mice) was “effectively antagonized this response” and the “antagonism of motor stimulation induced by (−)-OSU6162 250 μmol/kg ip” value (“antagonism … (−)-OSU6162 250 μmol/kg ip” for short) ([1]; reserpine-pretreated mice) was “effectively antagonized”. The “reversal of (−)-OSU6162-induced locomotor stimulation” value ([12]; M100907 1 mg/kg ip, 15-35 minute interval) was “significant reversal” and the “counteraction of locomotor stimulation induced by (+)-OSU6162 50 μmol/kg sc” value ([12]; M100907 0.5 and 1 mg/kg ip, 5-35 minute interval) was “significantly counteracted”.
In the case of `Clc1ccc2c(c1)N=C(N1CCNCC1)c1ccccc1N2` [NDMC, 8-chloro-11-(1-piperazinyl)-5H-dibenzo[b,e][1,4]diazepine], the “R-SAT Eff(%)” value [3] is reported as 33 ± 2%, the EC50 ([3]; Table 2, negative logarithm of EC50 in molar, NIH3T3 cells, mean ± SEM, read-out: R-SAT pEC50 (converted)) is reported as 0.0126 µM and the EC50 ([4]; negative logarithm of EC50 in molar, HEK293T membranes, mean ± SEM, read-out: GTPγS pEC50 (converted)) is reported as 0.0398 µM. For the same molecule, the “GTPγS Eff %” value [4, 14] was 18 ± 1%, the “agonist profile in BRET2 assays” value [8] was “no agonist activity” and the “BRET2 Eff %” value [8, 14] was 0 ± 0%.
For `CCCN[C@H]1CCc2nc(N)sc2C1` [Pramipexole, (6S)—N^6-propyl-4,5,6,7-tetrahydro-1,3-benzothiazole-2,6-diamine], the “R-SAT Eff(%)” value [3] was 84 ± 9%, the “GTPγS Eff %” value [4] was 87 ± 6% and the “BRET2 Eff %” value [6] was 52 ± 3%. The “R-SAT Eff(%)” value [7] was 48 ± 9%, the “BRET2 Eff %” value [8] was 104 ± 1% and the “agonist profile in BRET2 assays” value [8] was “full agonist”.
With `CN1CCc2cc(Cl)c(O)cc2[C@H]2c3ccccc3CC[C@@H]21` [SCH39166] the “antagonism … (+)-OSU6162 250 μmol/kg ip” value ([1]; reserpine-pretreated mice) was “did not significantly influence the motor activation” and the “antagonism … (−)-OSU6162 250 μmol/kg ip” value ([1]; reserpine-pretreated mice) was “did not significantly influence the motor activation”.
`O=C(CCCN1CCC(O)(c2ccc(Cl)cc2)CC1)c1ccc(F)cc1` [haloperidol] was tested, and the “antagonism … (+)-OSU6162 250 μmol/kg ip” value ([1]; reserpine-pretreated mice) was “None of the dopaminergic antagonists, i e SCH23390 (0.3 mg/kg), raclopride (20 mg/kg) or haloperidol (1 mg/kg), could antagonize”, the “antagonism … (−)-OSU6162 250 μmol/kg ip” value ([1]; reserpine-pretreated mice) was “could not antagonize” and the “antagonism of locomotor stimulation induced by (+)-OSU6162 50 μmol/kg sc” value [12, 21] was “effectively antagonized the locomotor stimulation”. For the same molecule, the “antagonism of locomotor stimulation induced by (−)-OSU6162 50 μmol/kg sc” value [12, 21] was “effectively antagonized the locomotor stimulation”.
`CCN1CCC[C@H]1CNC(=O)c1c(O)c(Cl)cc(Cl)c1OC` [raclopride] was tested, and the “antagonism … (+)-OSU6162 250 μmol/kg ip” value ([1]; reserpine-pretreated mice) was “None of the dopaminergic antagonists, i e SCH23390 (0.3 mg/kg), raclopride (20 mg/kg) or haloperidol (1 mg/kg), could antagonize” and the “antagonism … (−)-OSU6162 250 μmol/kg ip” value ([1]; reserpine-pretreated mice) was “could not antagonize”.
